# Values quoted from earlier work as cited in patent US11246476B2, “Method for visualizing tissue with an ICG dye composition during ablation procedures” (CardioFocus, Inc., priority 2014, dated 2022).
# What was measured:
# [1] = in vivo
# [2] = after injection into the patient's arm (e.g., through an IV)
smiles,measurement,setting,value
"CC1(C)C(/C=C/C=C/C=C/C=C2\N(CCCCS(=O)(=O)[O-])c3ccc4ccccc4c3C2(C)C)=[N+](CCCCS(=O)(=O)[O-])c2ccc3ccccc3c21.[Na+] [ICG, Indocyanine green]",route of removal from circulation,[1],removed from circulation exclusively by the liver to bile juice
same,binding to plasma proteins,plasma proteins,binds tightly to plasma proteins
same,time to travel through the bloodstream to the target tissue,[2],less than 1 minute
